One compound from ChEMBL document CHEMBL5247655, “Simplified Derivatives of Tetrandrine as Potent and Specific P-gp Inhibitors to Reverse Multidrug Resistance in Cancer Chemotherapy” (J Med Chem, 2023) can be followed below.

As a reminder, the pIC50 is −log10 of the IC50, conventionally taken in molar units. What is called IC50 is the midpoint of a concentration-inhibition curve. The term Cmax denotes the highest concentration seen after dosing. As usually defined, the MRT inf is a mean duration of stay, worked out from the concentration-time curve.

pIC50: −log10 of the molar value. Active and inactive are the calls of the source. No cut-off for these calls is given here.

The target in series [1] is T1, ATP-dependent translocase ABCB1 (Homo sapiens, UniProt P08183). The series is described as follows: Inhibition of P-gp efflux in vincristine resistant human Eca-109 cells assessed as increase in rhodamine 123 fluorescence intensity at 30 uM. It counts as cell-based. The settings on record: eca-109, 30 µM, TDE = time-dependent effect, time 0-5 hrs.
Series [2] concerns ECa-109 cell line. The series can be described thus: Cytotoxicity against vincristine resistant human Eca-109 cells incubated for 48 hrs by CCK-8 method. It counts as functional, cell-based. The settings on record: ECa-109, 48 h.
The nature of series [3]: Cytotoxicity against human GES1 cells incubated for 48 hrs by CCK-8 method. It counts as toxicity, cell-based. For orientation: Tetrazolium dyes change colour on reduction, which living cells bring about.
Series [4] concerns ECa-109 cell line. The series is described as follows: Reversal of VCR -resistance in human Eca-109 cells assessed as cell viability at 5 uM incubated for 48 hrs by CCK-8 method (reference value: 6830.0+/-537.0 nM). It counts as functional, cell-based. The settings on record: ECa-109, 48 h.
The test system of series [5] is ECa-109 cell line. The series can be described thus: Reversal of vincristine-resistance in human Eca-109 cells assessed as fold reversal by measuring cell viability at 1 uM incubated for 48 hrs by CCK-8 method relative to vincristine alone. The class given is functional.
In series [6] the test system is ECa-109 cell line. The series can be described thus: Reversal of vincristine-resistance in human Eca-109 cells assessed as fold reversal by measuring cell viability at 2.5 uM incubated for 48 hrs by CCK-8 method relative to vincristine alone. The class given is functional.
Series [7] concerns ECa-109 cell line. The series is described as follows: Induction of apoptosis in vincristine resistant human Eca-109 cells assessed as early apoptotic cells at 1 uM incubated for 24 hrs by AnnexinV-FITC/PI staining based flow cytometric analysis (reference value: 2.30%). It counts as functional. A general note: In flow cytometry, cells or beads pass a laser one at a time.
Series [8] concerns ECa-109 cell line. The series can be described thus: Induction of apoptosis in vincristine resistant human Eca-109 cells assessed as early apoptotic cells at 5 uM incubated for 24 hrs by AnnexinV-FITC/PI staining based flow cytometric analysis (reference value: 2.30%). The class given is functional.
The test system of series [9] is ECa-109 cell line. The series is described as follows: Induction of apoptosis in vincristine resistant human Eca-109 cells assessed as viable cells at 1 uM incubated for 24 hrs in presence of vincristine by AnnexinV-FITC/PI staining based flow cytometric analysis (reference value: 89.2%). The class given is functional. The settings on record: read-out: Activity.
For series [10], the system named is ECa-109 cell line. The series is described as follows: Induction of apoptosis in vincristine resistant human Eca-109 cells assessed as early apoptotic cells at 2.5 uM incubated for 24 hrs in presence of vincristine by AnnexinV-FITC/PI staining based flow cytometric analysis (reference value: 4.43%). The class given is functional.
Series [11] deals with ECa-109 cell line. The series can be described thus: Induction of apoptosis in vincristine resistant human Eca-109 cells assessed as late apoptotic cells at 2.5 uM incubated for 24 hrs in presence of vincristine by AnnexinV-FITC/PI staining based flow cytometric analysis (reference value: 6.01%). It counts as functional.
Series [12] relates to ECa-109 cell line. The series can be described thus: Induction of apoptosis in vincristine resistant human Eca-109 cells assessed as necrotic cells at 2.5 uM incubated for 24 hrs in presence of vincristine by AnnexinV-FITC/PI staining based flow cytometric analysis (reference value: 0.35%). It counts as functional.
Series [13] concerns ECa-109 cell line. The series can be described thus: Synergistic antitumor activity against in vincristine resistant p-gp overexpressing human Eca-109 cells xenografted in nude mouse assessed as inhibition of tumor growth rate at 30 mg/kg, IG administered every two days for 21 days in presence of vincristine relative to control. The settings on record: time 21 day. Further details: scale not given: the % may be the effect or the level left. The class given is functional.

Series [14] in a line: Toxicity in nude mouse assessed as change in body weight at 30 mg/kg administered every 2 days for 21 days. The class given is organism-based. The settings on record: in vivo, 48 h, time 2 day.
Series [15] has as its system ECa-109 cell line. The series is described as follows: Synergistic antitumor activity against in vincristine resistant p-gp overexpressing human Eca-109 cells xenografted in nude mouse assessed as increase in vacuoles at 30 mg/kg, IG administered every two days for 21 days in presence of vincristine by TUNEL analysis. The settings on record: time 21.0 day. It counts as functional, organism-based. Background: Xenograft models place foreign cells or tissue in a host animal.

Series [16] in a line: Cmax in Sprague-Dawley rat at 3 mg/kg, iv measured upto 24 hrs by UPLC/MS/MS analysis. The settings on record: in vivo. Further details: time < 24 hrs, dose 3 mg/kg, route iv. It counts as ADME, organism-based.
Series [17] can be described thus: Cmax in Sprague-Dawley rat at 30 mg/kg, po measured upto 24 hrs by UPLC/MS/MS analysis. It counts as ADME, organism-based. Set-up: time < 24 hrs, dose 30 mg/kg, route po. The settings on record: in vivo.
Series [18] in a line: MRT (0 to infinity) in Sprague-Dawley rat at 3 mg/kg, iv measured upto 24 hrs by UPLC/MS/MS analysis. The class given is ADME, organism-based. The settings on record: in vivo.
Series [19] in a line: AUMC (0 to infinity) in Sprague-Dawley rat at 3 mg/kg, iv measured upto 24 hrs by UPLC/MS/MS analysis. It counts as ADME, organism-based. The settings on record: in vivo.
The target of series [20] is T1, ATP-dependent translocase ABCB1. The series can be described thus: Inhibition of P-gp efflux in vincristine resistant human Eca-109 cells assessed as increase in colocalization of dox with nucleus at 1 to 5 uM incubated for 3 hrs by DAPI staining based laser-scanning confocal microscopy analysis. It counts as cell-based. The settings on record: eca-109, 3 h, dose 1-5 µM.

Series [21] shares this target. The series can be described thus: Inhibition of P-gp efflux in vincristine resistant human Eca-109 cells assessed as effect on accumulation of H33342. The class given is cell-based.
Series [22] has the same target. The series is described as follows: Binding affinity to P-gp in vincristine resistant human Eca-109 cells assessed as stabilization of protein at 67 degree C at 100 uM incubated for 30 mins by thermal shift assay. The class given is cell-based. The settings on record: eca-109, 0.5 h.
Series [23] has as its target Multidrug resistance-associated protein 1 (Homo sapiens, UniProt P33527). The series is described as follows: Binding affinity to MRP1 in vincristine resistant human Eca-109 cells assessed as stabilization of protein at 100 uM incubated for 30 mins by thermal shift assay. It counts as cell-based. The settings on record: eca-109, 0.5 h.

T1 sequence (P08183 whole entry): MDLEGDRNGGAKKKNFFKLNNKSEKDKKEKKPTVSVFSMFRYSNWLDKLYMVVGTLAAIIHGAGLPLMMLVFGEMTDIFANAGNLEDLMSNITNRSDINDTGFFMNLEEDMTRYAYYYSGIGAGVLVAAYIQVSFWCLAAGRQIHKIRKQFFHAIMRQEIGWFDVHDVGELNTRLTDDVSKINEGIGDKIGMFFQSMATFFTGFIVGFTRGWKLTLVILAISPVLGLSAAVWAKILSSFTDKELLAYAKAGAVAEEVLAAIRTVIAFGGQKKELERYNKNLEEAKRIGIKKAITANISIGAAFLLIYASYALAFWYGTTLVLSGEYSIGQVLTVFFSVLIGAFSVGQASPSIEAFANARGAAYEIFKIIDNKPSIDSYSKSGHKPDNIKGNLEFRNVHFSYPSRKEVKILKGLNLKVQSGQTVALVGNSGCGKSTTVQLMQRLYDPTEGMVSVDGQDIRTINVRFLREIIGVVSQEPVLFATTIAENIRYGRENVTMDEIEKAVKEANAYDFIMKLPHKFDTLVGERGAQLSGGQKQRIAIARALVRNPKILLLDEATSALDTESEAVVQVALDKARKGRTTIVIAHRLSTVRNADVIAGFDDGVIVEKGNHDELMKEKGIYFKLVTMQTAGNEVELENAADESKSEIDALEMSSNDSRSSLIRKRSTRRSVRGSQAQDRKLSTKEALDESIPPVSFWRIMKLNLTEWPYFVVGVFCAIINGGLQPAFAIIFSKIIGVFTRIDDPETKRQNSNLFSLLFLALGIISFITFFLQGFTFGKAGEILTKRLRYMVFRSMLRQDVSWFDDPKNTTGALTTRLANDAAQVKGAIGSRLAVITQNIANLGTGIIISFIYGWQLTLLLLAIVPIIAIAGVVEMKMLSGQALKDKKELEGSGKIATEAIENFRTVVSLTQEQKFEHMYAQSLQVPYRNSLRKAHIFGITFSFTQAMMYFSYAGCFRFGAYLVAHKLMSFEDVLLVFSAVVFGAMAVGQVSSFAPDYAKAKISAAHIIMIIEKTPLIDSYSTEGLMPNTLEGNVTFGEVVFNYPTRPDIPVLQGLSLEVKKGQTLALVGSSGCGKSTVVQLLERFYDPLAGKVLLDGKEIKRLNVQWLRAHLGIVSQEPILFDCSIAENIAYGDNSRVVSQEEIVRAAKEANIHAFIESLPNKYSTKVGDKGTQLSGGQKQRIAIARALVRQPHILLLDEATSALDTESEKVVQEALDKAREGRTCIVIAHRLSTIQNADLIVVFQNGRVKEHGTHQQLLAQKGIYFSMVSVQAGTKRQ
Chain of Multidrug resistance-associated protein 1 (P33527 whole entry): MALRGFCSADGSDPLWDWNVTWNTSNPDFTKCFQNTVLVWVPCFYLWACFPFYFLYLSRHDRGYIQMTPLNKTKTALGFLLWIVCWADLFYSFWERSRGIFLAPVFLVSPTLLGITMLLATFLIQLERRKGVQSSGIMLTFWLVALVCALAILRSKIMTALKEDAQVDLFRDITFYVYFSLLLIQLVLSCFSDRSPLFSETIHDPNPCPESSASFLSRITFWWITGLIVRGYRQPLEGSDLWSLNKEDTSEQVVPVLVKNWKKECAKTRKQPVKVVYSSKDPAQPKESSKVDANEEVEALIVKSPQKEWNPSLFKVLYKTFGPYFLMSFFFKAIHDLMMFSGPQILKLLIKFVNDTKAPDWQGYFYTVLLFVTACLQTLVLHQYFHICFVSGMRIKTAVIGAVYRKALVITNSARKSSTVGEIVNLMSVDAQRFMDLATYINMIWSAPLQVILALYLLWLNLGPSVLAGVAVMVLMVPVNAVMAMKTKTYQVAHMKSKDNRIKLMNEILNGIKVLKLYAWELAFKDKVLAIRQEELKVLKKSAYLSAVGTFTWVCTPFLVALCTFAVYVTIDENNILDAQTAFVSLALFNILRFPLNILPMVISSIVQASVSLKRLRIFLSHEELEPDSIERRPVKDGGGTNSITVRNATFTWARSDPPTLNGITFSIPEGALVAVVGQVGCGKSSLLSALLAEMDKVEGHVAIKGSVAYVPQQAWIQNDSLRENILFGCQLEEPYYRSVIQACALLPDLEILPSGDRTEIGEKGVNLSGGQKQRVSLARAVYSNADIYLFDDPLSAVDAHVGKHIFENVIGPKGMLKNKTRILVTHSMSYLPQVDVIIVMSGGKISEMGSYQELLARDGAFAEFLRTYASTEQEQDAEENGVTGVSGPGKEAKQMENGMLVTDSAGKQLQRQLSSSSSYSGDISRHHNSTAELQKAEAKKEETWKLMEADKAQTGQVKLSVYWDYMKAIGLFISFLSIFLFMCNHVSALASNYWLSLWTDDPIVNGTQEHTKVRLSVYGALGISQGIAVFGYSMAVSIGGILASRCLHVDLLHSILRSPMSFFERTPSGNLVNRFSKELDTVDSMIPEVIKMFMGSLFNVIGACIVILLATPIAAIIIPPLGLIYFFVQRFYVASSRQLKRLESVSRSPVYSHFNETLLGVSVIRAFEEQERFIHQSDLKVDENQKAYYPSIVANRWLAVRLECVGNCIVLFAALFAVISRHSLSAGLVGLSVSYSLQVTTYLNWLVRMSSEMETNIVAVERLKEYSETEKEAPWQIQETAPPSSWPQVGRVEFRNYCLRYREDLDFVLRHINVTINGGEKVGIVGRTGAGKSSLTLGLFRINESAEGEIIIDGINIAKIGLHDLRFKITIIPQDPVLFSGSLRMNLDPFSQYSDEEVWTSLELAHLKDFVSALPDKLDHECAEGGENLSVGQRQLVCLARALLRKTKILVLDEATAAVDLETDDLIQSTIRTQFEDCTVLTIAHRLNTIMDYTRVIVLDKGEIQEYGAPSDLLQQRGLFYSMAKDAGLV

Regarding `COc1cc2c(cc1OC)C(Cc1ccc(OC)c(OCc3ccccc3)c1)N(C)CC2` (stereo not drawn), the “inhibition (INH)” value in series [1] was “Tde”; in series [20] it was “Active”; in [21], “Active”. For the same compound, the pIC50 in [2] is under 4.00; in series [4], 8.00. This compound gave a 50% inhibitory concentration (IC50) at 48 h in [3] of over 50 µM. The results for the “fold change (FC)” value in [5] and in series [6] were 3.7 and 103.4, respectively. Further, the Activity is recorded as 2.07% in series [7]; 2.51% in series [8]; 17.8% in series [10]; 11.3% in series [11]; 0.42% in series [12]; 79.13% in [13]. Also, the Activity result is “Non-Toxic” in [14], “Active” in [22] and “Not Active” in series [23]. Also, the viability at 1 µM in series [9] came out at 76.1%. The result in [15] was Active. Further, the maximum concentration (Cmax) in series [16] was determined as 1570 ng/mL; in [17], 637 ng/mL. Further, in series [18], the mean residence time (MRT inf) came to 2.68 h. In addition, in [19], the AUMC is 7391.35 ng/mL.hr^2.
